Assay [1] has as its system primary human T-cells. Put plainly: IL2 secretion measurements in CD3-stimulated T-cells. The class given is cell-based. The following applies: Homo sapiens, T-cell, 24 h, CD3 condition; for Emax: IL2 after 24 hours, 20 μM reference compound A1 = 100%, read-out: Emax IL2 (% activation); for EC50: IL2 secretion after 24 hours, read-out: Tcell IL2 CD3 EC50. Here is the method: As readouts for T-cell activation, IL2 secretion after 24 hours and proliferation after 5 days was measured. Increases in IL2 secretion and proliferation upon compound treatment were assessed as the % of the maximum of reference compound A1. WO 2016/139181 discloses reference compound A1 as example 70. As a counter screen and to make sure that no unwanted TCR-independent activation was triggered, PBS conditions were run for all compounds.
Expanded primary human T-cells were thawed and cultured in RPMI 1640 (Gibco, #61870-010)+5% human serum (HS, Sigma, #H3667)+1 mM Sodium Pyruvate (Gibco, #11360-039)+50 μM 2-mercaptoethanol (Gibco, #31350-010) and 1× Pen-Strep (Life Technologies, #15140122) medium at density of 2 Mio/ml for 3 hours in 5% CO2, 37° C. and 95% humidity. For coating of plates, […] or PBS++ with CD3 antibody (concentration depending on donor and determined by CD3 titrations) was added 100 μl/well to Poly-D Lysine coated 96-well plates. Plates were sealed and incubated at room temperature for 3 hours on a table-top rocking platform. After incubation, plates were washed once with PBS−− and filled with 40 μl/well culture medium only. Compounds were then added (see next section) to medium only plates. After 3 hours of culturing the T-cells, cells were filtered through a cell strainer (Miltenyi Biotech, #130-041-407), counted again and concentration was adjusted to 1.25 Mio/ml.
Cells were then seeded 80 μl/well to the 40 μl/well including dispensed compounds according to plate layout. By adding cells, compounds were further diluted 1:3, and resulting in 100k cells/120 µl/well. After 24 hours 40 μl of supernatant was collected carefully from the top while not disturbing the cells and transferred into a round bottom 96 well plate. Collected and frozen supernatant was used for detection of IL2 using the IL-2 Human ProQuantum Immunoassay Kit (Invitrogen) or using the Human IL-2 ELISA Kit (Thermo Fisher).
(§1) Compound Treatment Compounds were added in a 5 or 6 pt dose response with the Tecan D300e Digital Dispenser, all conditions 3 times more concentrated than the end-concentration, since cells are added afterwards (80p1 cells to 40p1 prepared medium with treatment). The DR was starting at 20 μM or 10 μM final top concentration and a dilution factor of 3.333. The positive control was the reference compound A1 that was added in a dose response as well, additionally to 3 wells of only 20 μM representing the positive stimulator control. All wells were normalized with DMSO to a final concentration of 0.6% (0.2% end-concentration).
The immunoassay is done following the manufacturer's manual (Invitrogen, #A35603).
Additional information: For the immunoassay, MicroAmp™ EnduraPlate™ Optical 384-Well plates are used. Frozen supernatant is thawed and centrifuged for 5 minutes at 1000×g, both steps at 4° C. After centrifugation, required sample amount is taken from the top, and in a separate LightCycler V-bottom plate (working plate) diluted with assay dilution buffer, dilution factor depending on the PBS or CD3 condition but at least 1:3. IL-2 standard and blanks are prepared in the same V-bottom plate, standard with a range of 0.0128-5000 pg/ml (extended version). After preparation, 5 μl of sample dilutions or standard/blanks are transferred to the optical 384-well plate (assay plate) and the 10 μl reaction protocol is being followed. For measurement, the QuantStudio 12K Flex system is used. Raw data is extracted and IL-2 concentrations are calculated with the Thermo Fisher online app (apps.thermofisher.com/apps/proquantum).
ELISA is done following the manufacturer's manual (Thermo Fisher Scientific, #88-7025-88). Additional information: For the ELISA Nunc MaxiSorp 96 well plates are used. Frozen supernatant is thawed and centrifuged for 5 minutes at 1000×g, both steps at 4° C. […]

Assay [2] concerns primary human T-cells. Put plainly: T-cell proliferation assay (CellTiter-Glo). In kind it is cell-based. As to conditions: Homo sapiens, T-cell, 120 h, CD3 condition; for Emax: 5 days, 20 μM reference compound A1 = 100%, read-out: Emax proliferation (% activation); for EC50: proliferation after 5 days, CellTiter-Glo, read-out: Tcell Proliferation CD3 EC50. Here is the method:
Expanded primary human T-cells are thawed and cultured in RPMI 1640 (Gibco, #61870-010)+5% human serum (HS, Sigma, #H3667)+1 mM Sodium Pyruvate (Gibco, #11360-039)+50 μM 2-mercaptoethanol (Gibco, #31350-010) and 1× Pen-Strep (Life Technologies, #15140122) medium at density of 2 Mio/ml for 3 hours in 5% CO2, 37° C. and 95% humidity. For coating of plates, PBS++ only or PBS++ with CD3 antibody (concentration depending on donor and determined by CD3 titrations) is added 100 μl/well to Poly-D Lysine coated 96-well plates. Plates are sealed and incubated at room temperature for 3 hours on a table-top rocking platform. After incubation, plates are washed once with PBS−− and filled with 40 μl/well culture medium only. Compounds are then added (see next section) to medium only plates. After 3 hours of culturing the T-cells, cells are filtered through a cell strainer (Miltenyi Biotech, #130-041-407), counted again and concentration is adjusted to 1.25 Mio/ml.
Cells are then seeded 80 μl/well to the 40 µl/well including dispensed compounds according to plate layout. By adding cells, compounds are further diluted 1:3, and resulting in 100k cells/120 µl/well. After 48 hours 40 μl of supernatant is collected carefully from the top while not disturbing the cells. Cells are assessed for proliferation 5 days later by measuring […] using CellTiterGlo (Promega).
as §1, with “Compounds” for “Compound Treatment Compounds”
After 5 days, for detection of ATP which is directly proportional to the number of cells present per well, the CellTiter-Glo® 2.0 Reagent is used. After visual control for toxicity or precipitations of the tested compounds, the plates are equilibrated to room temperature for 45 minutes. CellTiter-Glo® 2.0 Reagent is equilibrated to room temperature as well. After equilibration, an equal amount of CellTiter-Glo reagent is added to the cells (80 µl/well) with an electronic multichannel pipette. Plates are placed on a rocking platform for 15 minutes at room temperature. After incubation, the bottom of the plates is sealed with backing tape. Luminescence is measured with PHERAstar FSX (interval time 0.5 sec, gain 3000, focal height 15 mm) and exported as CSV file for analysis in Genedata screener.
Calculations and Data Reporting CD3 and PBS plates were analysed separately in Genedata Screener using Roche Normalization PCT_POS_CTRL with DMSO set as Neutral Control and 20 μM of the reference compound A1 set as Stimulator Control/100%.
For CD3 conditions EC50 and Emax of the fitted sigmoidal curve were reported. If no curve could be fitted, the EC50 was reported as blank field and the Emax was based on individual data points. […] Compounds which activate unstimulated cells (see IL2 measurements) or compounds which negatively affected viability were flagged.
In general terms: In ATP-based viability assays light output follows the ATP content of the culture.

The target in another assay is DGKalpha (Homo sapiens, UniProt P23743). Put plainly: In vitro DGK inhibition assay (ADP-Glo, liposomes), DGKalpha. Also noted: hDGKalpha(1-735)-N-His; His (N); made in house; host or cells: Sf21 insect cells (baculovirus). The following applies: 4 nM DGK α, 25 μM ATP, 125 uM DLG in liposomes, 1 hour reaction. The class given is biochemical. The protocol:
(§2) DGK α and ζ kinases use ATP to phosphorylate the substrate 1,2-dilauroyl-sn-glycerol (DLG, incorporated in the liposomes). ATP is converted to ADP as a result of this enzymatic reaction. After the kinase reaction, an ATP-depletion reagent is added to terminate the kinase reaction and deplete any remaining ATP, leaving only ADP. Second, a detection reagent is added to simultaneously convert ADP to ATP and allow the newly synthesized ATP to be converted to light using a coupled luciferase/luciferin reaction.
Full length DGKA and Z were expressed in Sf21 insect cells by infecting the cells with the baculovirus stock at MOI of 2. Purification of both enzymes was performed as previously described by Takahashi et al., PeerJ, 2018 (Takahashi, D.; Sakane, F. Expression and purification of human diacylglycerol kinase alpha from baculovirus-infected insect cells for structural studies. PeerJ 2018, 6, No. e5449).
(§3) A concentrated liposome solution was prepared in assay buffer without DTT and BSA: 2 mM of DLG in 21 mM of total liposome (2 mM DLG/8 mM PS/11 mM PC). The reaction mixtures contain the assay buffer with a final DLG concentration of 125 uM ATP concentrations of 25 μM (for DGKA assay) or 50 μM (for DGKZ assay). The reactions were started by addition of DGK a and (kinases at 4 nM and 2 nM final concentrations, respectively. After 1 hour reaction, the amount of ADP formed was detected with the ADP-Glo kinase assay (Promega) according to the manufacturer instructions. Compounds were added in 11-points dose response, starting at […], 1:3 dilutions, with a final DMSO concentration of 2%. The multidrop combi was used as a liquid handler and luminescence was read with 0.5 s by the envision reader (PE).
(ADP-Glo turns the ADP formed in a reaction into a luminescent signal.)

A further assay has as its target DGKzeta (Homo sapiens, UniProt Q13574). Briefly: In vitro DGK inhibition assay (ADP-Glo, liposomes), DGKzeta. The class given is biochemical. On the set-up: hDGKzeta(1-928)-N-His; His (N); made in house; host or cells: Sf21 insect cells (baculovirus). The following applies: 2 nM DGK ζ, 50 μM ATP, 125 uM DLG in liposomes, 1 hour reaction. The protocol:
as §2
Purification of both enzymes was performed as previously described by Takahashi et al., PeerJ, 2018 (Takahashi, D.; Sakane, F. Expression and purification of human diacylglycerol kinase alpha from baculovirus-infected insect cells for structural studies. PeerJ 2018, 6, No. e5449).
as §3

Structures are written as SMILES. Where only a bound is given, the exact number is not on record here.

Sequence of DGKzeta (Q13574 whole entry): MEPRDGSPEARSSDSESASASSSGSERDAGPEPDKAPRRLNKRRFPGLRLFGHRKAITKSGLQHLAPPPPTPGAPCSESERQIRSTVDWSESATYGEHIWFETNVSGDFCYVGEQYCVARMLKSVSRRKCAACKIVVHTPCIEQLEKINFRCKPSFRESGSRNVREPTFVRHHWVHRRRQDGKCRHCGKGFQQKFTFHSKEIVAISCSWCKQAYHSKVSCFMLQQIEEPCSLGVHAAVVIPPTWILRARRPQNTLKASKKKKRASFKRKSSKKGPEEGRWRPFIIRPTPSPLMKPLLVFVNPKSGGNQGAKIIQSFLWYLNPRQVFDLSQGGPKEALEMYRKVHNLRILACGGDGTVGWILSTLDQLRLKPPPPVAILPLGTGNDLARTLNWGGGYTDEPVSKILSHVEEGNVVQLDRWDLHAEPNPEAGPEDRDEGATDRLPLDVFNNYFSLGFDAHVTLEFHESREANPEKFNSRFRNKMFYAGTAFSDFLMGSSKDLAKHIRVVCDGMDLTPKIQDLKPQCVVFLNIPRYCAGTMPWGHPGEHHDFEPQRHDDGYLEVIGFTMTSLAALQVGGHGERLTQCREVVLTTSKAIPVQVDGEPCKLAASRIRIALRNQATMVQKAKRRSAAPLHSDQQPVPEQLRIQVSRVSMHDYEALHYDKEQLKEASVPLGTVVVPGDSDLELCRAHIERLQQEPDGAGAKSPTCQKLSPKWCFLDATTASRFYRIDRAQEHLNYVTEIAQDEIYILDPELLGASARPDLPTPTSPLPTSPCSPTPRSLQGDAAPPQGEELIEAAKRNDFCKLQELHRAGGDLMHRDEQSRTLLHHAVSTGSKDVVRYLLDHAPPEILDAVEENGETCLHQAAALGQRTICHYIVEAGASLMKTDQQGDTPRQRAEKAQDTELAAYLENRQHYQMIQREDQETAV
Sequence of DGKalpha (P23743 whole entry): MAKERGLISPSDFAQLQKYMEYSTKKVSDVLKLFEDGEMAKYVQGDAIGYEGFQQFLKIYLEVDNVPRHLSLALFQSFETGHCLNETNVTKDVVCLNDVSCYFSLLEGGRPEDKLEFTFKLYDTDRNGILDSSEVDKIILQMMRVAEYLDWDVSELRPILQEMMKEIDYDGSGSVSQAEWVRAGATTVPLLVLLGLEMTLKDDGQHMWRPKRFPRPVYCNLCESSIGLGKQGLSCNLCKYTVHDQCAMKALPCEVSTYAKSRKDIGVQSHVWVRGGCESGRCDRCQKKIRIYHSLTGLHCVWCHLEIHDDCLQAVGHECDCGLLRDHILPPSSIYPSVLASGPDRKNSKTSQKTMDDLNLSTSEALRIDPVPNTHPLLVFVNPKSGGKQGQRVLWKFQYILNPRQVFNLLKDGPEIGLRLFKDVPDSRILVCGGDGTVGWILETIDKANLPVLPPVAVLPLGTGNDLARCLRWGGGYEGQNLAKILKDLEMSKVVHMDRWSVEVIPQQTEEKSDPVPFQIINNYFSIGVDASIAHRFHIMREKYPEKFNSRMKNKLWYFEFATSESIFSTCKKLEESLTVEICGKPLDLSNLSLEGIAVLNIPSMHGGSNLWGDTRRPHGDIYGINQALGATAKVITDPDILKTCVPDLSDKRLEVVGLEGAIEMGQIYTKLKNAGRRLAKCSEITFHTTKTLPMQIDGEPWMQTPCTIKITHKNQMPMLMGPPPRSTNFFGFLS

Turning to `CC(C)(c1nnc(-c2ccc3c(c2)N(Cc2ccc(COc4ccccc4)cc2)C(=O)[C@@H](N)CS3(=O)=O)o1)S(C)(=O)=O` [Example 8, (3R)-3-amino-7-[5-(1-methyl-1-methylsulfonyl-ethyl)-1,3,4-oxadiazol-2-yl]-1,1-dioxo-5-[[4-(phenoxymethyl)phenyl]methyl]-2,3-dihydro-1λ6,5-benzothiazepin-4-one], the Emax with primary human T-cells [1] was found to be 177%; in the assay with primary human T-cells [2], 174%.
Consider `CC(C)(c1nnc(-c2ccc3c(c2)N(Cc2ccc(OCc4cccc(F)c4)cc2)C(=O)[C@@H](N)CS3(=O)=O)o1)S(C)(=O)=O` [Example 13, (3R)-3-amino-5-[[4-[(3-fluorophenyl)methoxy]phenyl]methyl]-7-[5-(1-methyl-1-methylsulfonyl-ethyl)-1,3,4-oxadiazol-2-yl]-1,1-dioxo-2,3-dihydro-1λ6,5-benzothiazepin-4-one], for which, in the assay on primary human T-cells [1], the Emax was determined as 181% and the EC50 amounted to 1300 nM. Further, in the assay on primary human T-cells [2], the Emax is 92% and the EC50 stood at 1140 nM.
For `CC(C)N(C)c1ccc(CN2C(=O)[C@@H](N)CS(=O)(=O)c3ccc(-c4nnc(C(C)(C)S(C)(=O)=O)o4)cc32)cc1` [Example 18, (3R)-3-amino-5-[[4-[isopropyl(methyl)amino]phenyl]methyl]-7-[5-(1-methyl-1-methylsulfonyl-ethyl)-1,3,4-oxadiazol-2-yl]-1,1-dioxo-2,3-dihydro-126,5-benzothiazepin-4-one], in the assay with primary human T-cells [1], the Emax was found to be 46% and the EC50 is above 10000 nM. Moreover, in the assay with primary human T-cells [2], the Emax came to 63% and the EC50 turned out to be 6350 nM.
Regarding `CC(C)(c1nnc(-c2cc3c(cc2F)S(=O)(=O)C[C@H](N)C(=O)N3Cc2ccc(-c3ccc(C(F)(F)F)cn3)cc2)o1)S(C)(=O)=O` [Example 25, (3R)-3-amino-8-fluoro-7-[5-(1-methyl-1-methylsulfonyl-ethyl)-1,3,4-oxadiazol-2-yl]-1,1-dioxo-5-[[4-[5-(trifluoromethyl)-2-pyridyl]phenyl]methyl]-2,3-dihydro-1λ6,5-benzothiazepin-4-one], in the assay with primary human T-cells [1], the Emax was 244% and the EC50 is 566 nM.
Broadly, the IC50 is the midpoint of a concentration-inhibition curve. In the case of `CC(C)(c1nnc(-c2cc3c(cc2F)S(=O)(=O)C[C@H](N)C(=O)N3Cc2ccc(-c3noc(C(F)(F)F)n3)cc2)o1)S(C)(=O)=O` [Example 28, (3R)-3-amino-8-fluoro-7-[5-(1-methyl-1-methylsulfonyl-ethyl)-1,3,4-oxadiazol-2-yl]-1,1-dioxo-5-[[4-[5-(trifluoromethyl)-1,2,4-oxadiazol-3-yl]phenyl]methyl]-2,3-dihydro-1λ6,5-benzothiazepin-4-one], the half-inhibitory concentration (IC50) at DGKalpha turned out to be 1160 nM. For the same compound, at DGKzeta, the IC50 amounted to 573 nM. In the assay on primary human T-cells [1], the Emax amounted to 307% and the EC50 turned out to be 185 nM.

For the origin of these results see patent publication US20260035364A1, “BICYCLIC TETRAHYDROTHIAZEPINE DERIVATIVES” (Hoffmann-La Roche Inc., priority 2022, published 2026).
